Converted amounts (≈) assume the structure as drawn.
Legend:
[1] = tested on: Haemophilus influenzae ARC446; experiment: MIC, Haemophilus influenzae ARC446 (Mueller-Hinton broth); assay type: cell-based; conditions: Mueller-Hinton broth with hemin and NAD, 24 hours, 37° C.
Experimental: (§1) The following results were obtained on a standard in-vitro test system. The activity is described in terms of the minimum inhibitory concentration (MIC) determined by the agar-dilution technique with an inoculum size of 10^4 CFU/spot. Typically, compounds are active in the range 0.01 to 256 μg/ml. Streptococci and enterococci were tested on agar supplemented with 5% defibrinated horse blood, an inoculum of 10^4 CFU/spot and an incubation temperature of 37° C. in an atmosphere of 5% carbon dioxide for 48 hours—blood is required for the growth of some of the test organisms. Fastidious Gram negative organisms were tested in Mueller-Hinton broth, supplemented with hemin and NAD, grown aerobically for 24 hours at 37° C., and with an innoculum of 5×10^4 CFU/well.

[2] = tested on: Bacillus subtilis; experiment: MIC by agar-dilution, Bacillus subtilis; assay type: cell-based
Experimental: (§2) The following results were obtained on a standard in-vitro test system. The activity is described in terms of the minimum inhibitory concentration (MIC) determined by the agar-dilution technique with an inoculum size of 10^4 CFU/spot. Typically, compounds are active in the range 0.01 to 256 μg/ml.

[3] = tested on: Staphylococcus aureus Novb. Res (Novobiocin resistant); experiment: MIC by agar-dilution, Staphylococcus aureus Novb. Res; assay type: cell-based; conditions: 37° C., 24 hours
Experimental: as §2
(§3) Staphylococci were tested on agar, using an inoculum of 10^4 CFU/spot and an incubation temperature of 37° C. for 24 hours—standard test conditions for the expression of methicillin resistance.

[4] = tested on: Staphylococcus aureus MRQR (methicillin and quinolone resistant); experiment: MIC by agar-dilution, Staphylococcus aureus MRQR; assay type: cell-based; conditions: 37° C., 24 hours
Experimental: as §2, §3

[5] = tested on: Coagulase Negative Staphylococci MR (methicillin resistant); experiment: MIC by agar-dilution, Coagulase Negative Staphylococci MR; assay type: cell-based; conditions: 37° C., 24 hours
Experimental: as §2, §3

[6] = tested on: Moraxella catarrhalis ARC445; experiment: MIC, Moraxella catarrhalis ARC445 (Mueller-Hinton broth); assay type: cell-based; conditions: Mueller-Hinton broth with hemin and NAD, 24 hours, 37° C.
Experimental: as §1

[7] = tested on: Streptococcus pyogenes C203; experiment: MIC by agar-dilution, Streptococcus pyogenes C203; assay type: cell-based; conditions: agar with 5% defibrinated horse blood, 5% carbon dioxide, 48 hours
Experimental: as §1

[8] = tested on: Coagulase Negative Staphylococci MS (methicillin sensitive); experiment: MIC by agar-dilution, Coagulase Negative Staphylococci MS; assay type: cell-based; conditions: 37° C., 24 hours
Experimental: as §2, §3

[9] = tested on: Staphylococcus aureus Oxford; experiment: MIC by agar-dilution, Staphylococcus aureus Oxford; assay type: cell-based; conditions: 37° C., 24 hours
Experimental: as §2, §3

[10] = tested on: Enterococcus faecalis; experiment: MIC by agar-dilution, Enterococcus faecalis; assay type: cell-based; conditions: agar with 5% defibrinated horse blood, 5% carbon dioxide, 48 hours
Experimental: as §1

Structure (SMILES) | melting point | MIC [1] | MIC [2] | MIC [3] | MIC [4] | MIC [5] | MIC [6] | MIC [7] | MIC [8] | MIC [9] | MIC [10]
CC(C)(C)c1ccc(N2C[C@H](Cn3ccnn3)OC2=O)cc1 [Example 41, (5R)-3-(4-t-Butylphenyl)-5-(1,2,3-triazol-1-ylmethyl)oxazolidin-2-one] | 140 to 142 °C |  |  |  |  |  |  |  |  |  | 
CSc1ccc(N2C[C@H](Cn3cccn3)OC2=O)cc1 [Example 43, (5R)-3-(4-Methylthiophenyl)-5-(pyrazol-1-ylmethyl)oxazolidin-2-one] | 72 to 73 °C |  |  |  |  |  |  |  |  |  | 
O=C1O[C@@H](Cn2ccnn2)CN1c1cc(F)c(C2=CCS(=O)(=O)CC2)c(F)c1 [Example 44a, (5R)-3-(3,5-Difluoro-4-(3,6-dihydro-1,1-dioxo-2H-thiopyran-4-yl)phenyl)-5-(1,2,3-triazol-1-ylmethyl)oxazolidin-2-one] |  | 2 µg/mL (≈ 4.87 µM) | 0.25 µg/mL (≈ 0.609 µM) | 0.25 µg/mL (≈ 0.609 µM) | 0.25 µg/mL (≈ 0.609 µM) | 0.13 µg/mL (≈ 0.317 µM) | 2 µg/mL (≈ 4.87 µM) | 0.25 µg/mL (≈ 0.609 µM) | 0.06 µg/mL (≈ 0.146 µM) | 0.125 µg/mL (≈ 0.305 µM) | 0.25 µg/mL (≈ 0.609 µM)

Source: patent publication US7141583B2, “Oxazolidinone derivatives with antibiotic activity” (AstraZeneca AB, priority 2000, dated 2006)
